Here are results for 4 molecules from PMC12236194, “Precision dendritic-supramolecular glycan assemblies for probing multivalent lectin interactions” (Chemical Science, 2025).

Series [1] can be described thus: Dynamic light scattering (DLS) hydrodynamic diameter in solution. The series is classed as physicochemical. The note with it: H2O, 1 mM, 25 °C. On the procedure: S3. Dynamic Light Scattering (DLS)
All measurements were conducted using a 384-well plate with individual sample volumes of 30
µL. Solutions of man-2, man-3, and man-6 were freshly prepared in H2O (1 mM). For the glycoassembly analyses, two solution conditions were used: samples prepared in H2O (5 μM), and samples prepared in mixed DMSO/H2O solutions (85% v/v, 50 μM). The concentration of each glycoassembly solution was determined by absorption spectroscopy according to ε values (M-1cm-1) reported in Section S2.2. All sample solutions were filtered through a 0.22 μm PTFE syringe filter before being added to a well. The sample plate was then centrifuged using a Fisherbrand Mini Plate Spinner Centrifuge at 2500 rpm for 20 sec, and measurements were immediately collected at 25 °C. Before data collection, images were taken of each well to confirm the absence of bubbles or visible dust particles that affect the DLS measurements. The hydrodynamic diameter (Dh) values represent the mean ± standard deviation (σ) of the hydrodynamic size averaged for three (1 sec) scans and all data were analyzed using DYNAMICS […]
S3.1.1. Measurement in H2O (1 mM)
Figure S53. DLS measurements of man -2 (H O, 1 mM).
S3.2.1. Measurement in H2O (1 mM)
Figure S54. DLS measurements of man-3 (H2O, 1 mM). […]

Series [2] has as its target monomeric Griffithsin (GRFT). Also noted: method as in PMID 17340634. The note with it: monovalent sugar; cited from earlier work.

Molecules are shown by their SMILES.

In the case of `O=Cc1ccc(OCc2cc(OCc3cn(CCOCCO[C@H]4O[C@H](CO)[C@@H](O)[C@H](O)[C@@H]4O)nn3)cc(OCc3cn(CCOCCO[C@H]4O[C@H](CO)[C@@H](O)[C@H](O)[C@@H]4O)nn3)c2)cn1` [man-2], the “Hydrodynamic diameter (Dh)” value in series [1] is recorded as 1.6 ± 0.6 nm.
Consider `O=Cc1ccc(OCc2cc(OCc3cn(CCOCCO[C@H]4O[C@H](CO)[C@@H](O)[C@H](O)[C@@H]4O)nn3)c(OCc3cn(CCOCCO[C@H]4O[C@H](CO)[C@@H](O)[C@H](O)[C@@H]4O)nn3)c(OCc3cn(CCOCCO[C@H]4O[C@H](CO)[C@@H](O)[C@H](O)[C@@H]4O)nn3)c2)cn1` [man-3], for which, in series [1], the “Hydrodynamic diameter (Dh)” value was 1.8 ± 0.1 nm.
For `O=Cc1ccc(OCc2cc(OCc3cc(OCc4cn(CCOCCO[C@H]5O[C@H](CO)[C@@H](O)[C@H](O)[C@@H]5O)nn4)c(OCc4cn(CCOCCO[C@H]5O[C@H](CO)[C@@H](O)[C@H](O)[C@@H]5O)nn4)c(OCc4cn(CCOCCO[C@H]5O[C@H](CO)[C@@H](O)[C@H](O)[C@@H]5O)nn4)c3)cc(OCc3cc(OCc4cn(CCOCCO[C@H]5O[C@H](CO)[C@@H](O)[C@H](O)[C@@H]5O)nn4)c(OCc4cn(CCOCCO[C@H]5O[C@H](CO)[C@@H](O)[C@H](O)[C@@H]5O)nn4)c(OCc4cn(CCOCCO[C@H]5O[C@H](CO)[C@@H](O)[C@H](O)[C@@H]5O)nn4)c3)c2)cn1` [man-6], the “Hydrodynamic diameter (Dh)” value in series [1] is listed as 2.4 ± 0.2 nm.
`OC[C@H]1O[C@H](O)[C@@H](O)[C@@H](O)[C@@H]1O` [α-D-mannose]: in series [2], the Kd (commonly a measure of binding affinity in units of concentration) was approximately 100 µM.
